Test results: patent US20260130404A1, “SWEETNESS AND TASTE IMPROVEMENT OF NON-SUCROSE SWEETENERS WITH D-SUGARS OR L-SUGARS” (The Coca-Cola Company, priority 2022, published 2026)
Read-outs that look alike come from different tables or passages of the source.

What was measured:
panelists [1] = assay: Sensory panel paired comparison of lemon-lime beverages with Reb M; format: in vivo; settings: 1% in a lemon-lime matrix containing 475 ppm rebaudioside M
Experimental: (§1) The ingredients were dissolved in filtered water to constitute a syrup, then the final beverage was made by weighing the appropriate syrup amount and adding carbonated water using a ratio of 1-part syrup+5.4 parts carbonated water to target a carbonation of 3.8 volumes of CO2. Final beverages were filled in 300 ml glass bottles and served cold (4° C.). A sensory panel was provided with the D-glucose (@1%) containing beverage of Table 1 and the control shown therein. The beverages were evaluated blindly by six or seven panelists. Samples were coded and randomly presented to the panelists. Panelists were instructed to eat an unsalted cracker and rinse the mouth with water before and in between the samples. For each sample, panelists were instructed to taste, then write down their evaluation comments in paired comparison test between control and prototypes. Panelists ranked higher the sample that had higher sweet intensity, fast sweet onset, more sugar like mouthfeel, less sweet linger, less bitter and overall best tasting. […] Samples were coded and randomly presented to the panelists. Panelists were instructed to eat an unsalted cracker and rinse the mouth with water before and in between the samples. […]

panelists [2] = assay: Sensory panel paired comparison of lemon-lime beverages with Siamenoside I; format: in vivo; settings: 2% in a lemon-lime matrix containing 600 ppm Siamenoside I
Experimental: as §1, with “Table 4” for “Table 1”

human sense of taste [3] = settings: cited from earlier work
human sense of taste [4] = settings: cited from earlier work; remark: listed apart in the source
taste panelists = settings: background statement; cited from earlier work
[5] = lowest known concentration perceivable as sweet, ppm equivalent of the mM value
[6] = lowest known concentration perceivable by the human sense of taste as sweet

SMILES	taste modulation (sensory testing, FIG. 1 and 2) (panelists [1])	taste modulation (sensory testing, FIG. 3 and 4) (panelists [2])	sweetness recognition threshold concentration (human sense of taste [3]; [5])	sweetness recognition threshold concentration (human sense of taste [3]; [6])	detection threshold concentration (human sense of taste [4]; lowest known concentration perceivable by the human sense of taste)	detection threshold concentration (human sense of taste [4]; lowest known concentration perceivable, ppm equivalent of the mM value)	maximal sucrose equivalence (taste panelists)
O=C[C@H](O)[C@@H](O)[C@H](O)[C@H](O)CO [D-glucose]	effective taste modulator	effective taste modulator	about 7386 ppm	about 41±6 mM	about 13 mM	about 2342 ppm	–
C=C1C[C@@]23CC[C@H]4[C@@](C)(CCC[C@@]4(C)C(=O)O[C@@H]4O[C@H](CO)[C@@H](O)[C@H](O[C@@H]5O[C@H](CO)[C@@H](O)[C@H](O)[C@H]5O)[C@H]4O[C@@H]4O[C@H](CO)[C@@H](O)[C@H](O)[C@H]4O)[C@@H]2CC[C@]1(O[C@@H]1O[C@H](CO)[C@@H](O)[C@H](O[C@@H]2O[C@H](CO)[C@@H](O)[C@H](O)[C@H]2O)[C@H]1O[C@@H]1O[C@H](CO)[C@@H](O)[C@H](O)[C@H]1O)C3 [rebaudioside M]	–	–	–	–	–	–	greater than 10%
O=C[C@@H](O)[C@H](O)[C@@H](O)[C@@H](O)CO [L-glucose]	effective taste modulator	effective taste modulator	about 5765 ppm	about 32±7 mM	–	–	–
C=C1C[C@@]23CC[C@H]4[C@@](C)(CCC[C@@]4(C)C(=O)O[C@@H]4O[C@H](CO)[C@@H](O)[C@H](O)[C@H]4O)[C@@H]2CC[C@]1(O[C@@H]1O[C@H](CO)[C@@H](O)[C@H](O[C@@H]2O[C@H](CO)[C@@H](O)[C@H](O)[C@H]2O)[C@H]1O[C@@H]1O[C@H](CO)[C@@H](O)[C@H](O)[C@H]1O)C3 [rebaudioside A]	–	–	–	–	–	–	≤ 10%
